The target in test [1] is T1, AHR (Mus musculus, UniProt P30561).
T1 sequence (P30561 1-848 P471L/N533S/M589L): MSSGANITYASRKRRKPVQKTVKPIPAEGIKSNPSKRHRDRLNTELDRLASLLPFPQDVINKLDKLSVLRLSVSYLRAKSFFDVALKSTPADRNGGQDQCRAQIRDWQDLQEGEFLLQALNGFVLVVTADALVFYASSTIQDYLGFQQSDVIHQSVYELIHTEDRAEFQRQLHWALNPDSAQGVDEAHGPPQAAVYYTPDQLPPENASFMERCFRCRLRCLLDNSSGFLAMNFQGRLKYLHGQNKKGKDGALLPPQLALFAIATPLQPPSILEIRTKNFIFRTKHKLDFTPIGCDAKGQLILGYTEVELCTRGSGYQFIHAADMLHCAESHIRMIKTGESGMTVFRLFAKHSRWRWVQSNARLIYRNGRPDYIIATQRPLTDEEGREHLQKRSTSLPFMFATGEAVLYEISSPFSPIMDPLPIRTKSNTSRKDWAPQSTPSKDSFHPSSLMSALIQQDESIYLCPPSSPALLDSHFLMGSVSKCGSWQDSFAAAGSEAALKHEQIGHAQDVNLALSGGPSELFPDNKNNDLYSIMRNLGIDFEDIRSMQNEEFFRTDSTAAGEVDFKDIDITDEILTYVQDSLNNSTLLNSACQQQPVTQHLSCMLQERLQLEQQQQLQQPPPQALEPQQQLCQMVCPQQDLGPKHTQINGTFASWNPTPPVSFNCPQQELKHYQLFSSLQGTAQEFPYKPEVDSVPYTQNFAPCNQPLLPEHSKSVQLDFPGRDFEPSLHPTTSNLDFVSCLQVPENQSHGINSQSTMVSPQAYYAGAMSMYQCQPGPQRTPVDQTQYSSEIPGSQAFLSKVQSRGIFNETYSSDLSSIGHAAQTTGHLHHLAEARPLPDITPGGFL
In words: In vitro assay 3: antagonism in mouse cell line (AHR transactivation, firefly luciferase reporter, kynurenic acid prestimulated). Format: cell-based. The conditions noted are these: mouse Hepa 1c1c7 cells, 200 μM kynurenic acid, 20 hours, read-out: AHR Antagonism Mouse IC50. The method in brief: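 Antagonism read as reduced firefly luciferase signal (SteadyGlo) from a stably transfected AHR/DRE reporter in a mouse line prestimulated with kynurenic acid. Data normalized to controls, the full-inhibition control being cells without kynurenic acid; multiple determinations given as average or median values.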

Test [2] addresses T2, AHR (Homo sapiens, UniProt P35869).
T2 construct: U87 MG glioblastoma cells (ATCC #HTB-14) endogenously expressing AHR; endogenous in cells; host or cells: U87 MG glioblastoma cells (ATCC #HTB-14)
T2 sequence (P35869 11-848): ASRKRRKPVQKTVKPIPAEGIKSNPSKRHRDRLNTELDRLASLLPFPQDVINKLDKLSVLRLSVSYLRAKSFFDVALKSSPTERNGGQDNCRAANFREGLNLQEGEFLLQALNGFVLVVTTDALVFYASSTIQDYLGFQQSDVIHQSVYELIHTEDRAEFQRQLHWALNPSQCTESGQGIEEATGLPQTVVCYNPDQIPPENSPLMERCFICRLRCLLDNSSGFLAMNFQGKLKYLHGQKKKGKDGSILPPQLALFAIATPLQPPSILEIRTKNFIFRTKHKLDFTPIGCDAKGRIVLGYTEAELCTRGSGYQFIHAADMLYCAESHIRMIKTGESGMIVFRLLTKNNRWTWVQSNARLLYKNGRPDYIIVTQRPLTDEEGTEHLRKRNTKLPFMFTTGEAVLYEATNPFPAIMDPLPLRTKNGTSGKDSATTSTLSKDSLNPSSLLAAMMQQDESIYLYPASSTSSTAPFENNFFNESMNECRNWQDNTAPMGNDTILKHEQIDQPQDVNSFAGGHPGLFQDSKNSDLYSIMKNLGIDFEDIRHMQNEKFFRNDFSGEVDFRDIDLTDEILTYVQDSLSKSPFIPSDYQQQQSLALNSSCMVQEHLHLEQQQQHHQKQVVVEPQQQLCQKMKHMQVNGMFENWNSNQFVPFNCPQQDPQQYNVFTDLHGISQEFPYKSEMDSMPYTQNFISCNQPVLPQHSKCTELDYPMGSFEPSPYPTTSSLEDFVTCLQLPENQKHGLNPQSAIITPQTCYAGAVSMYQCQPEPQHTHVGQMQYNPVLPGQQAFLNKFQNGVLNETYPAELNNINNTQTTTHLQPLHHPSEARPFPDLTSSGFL
In words: In vitro assay 1: antagonism in human cell line (AHR transactivation, firefly luciferase reporter, kynurenic acid prestimulated). The test is classed as cell-based. The settings on record: AHR Antagonism Human IC50 [M]. The method, boiled down: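 Antagonism is measured against kynurenic acid prestimulation in U87 MG glioblastoma cells carrying stable DRE-luciferase and Renilla reporters. Positive inhibition control: 150 μM kynurenic acid with 5 μM staurosporine. Values are normalized to controls; repeats are averaged or given as medians.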
On the technique in general: A reporter such as luciferase makes a cellular process visible.

As usually defined, the IC50 is the concentration needed to halve the response being measured. Consider `COc1ccc(-c2nc3c4ccc(C(C)C)cc4nc(N[C@@H]4CCCCNC4=O)n3n2)cc1` [Example 395, (3R)-3-{[2-(4-Methoxyphenyl)-8-(propan-2-yl)[1,2,4]triazolo[1,5-c]quinazolin-5-yl]amino}azepan-2-one], for which the IC50 amounted to 2410 nM on AHR [1] and 3e-07 M against AHR [2].
Taken in the same sequence, the figures for `COc1ccc(-c2nc3c4c(C5COC5)cccc4nc(N[C@@H]4CCCCNC4=O)n3n2)cc1` [Example 396, (3R)-3-{[2-(4-methoxyphenyl)-10-(oxetan-3-yl)[1,2,4]triazolo[1,5-c]quinazolin-5-yl]amino}azepan-2-one] were 21.6 nM and 1.12e-08 M.
Taken in the same sequence, the figures for `COc1ccc(-c2nc3c4c(C5CCOCC5)cccc4nc(N[C@@H]4CCCCNC4=O)n3n2)cc1` [Example 397, (3R)-3-{[2-(4-methoxyphenyl)-10-(oxan-4-yl)[1,2,4]triazolo[1,5-c]quinazolin-5-yl]amino}azepan-2-one] were 37.6 nM and 1.83e-08 M.
Taken in the same sequence, the figures for `COc1ccc(-c2nc3c4cccc(C5(C(F)(F)F)CC5)c4nc(N[C@@H]4CCCCNC4=O)n3n2)cc1` [Example 398, (3R)-3-({2-(4-methoxyphenyl)-7-[1-(trifluoromethyl)cyclopropyl][1,2,4]triazolo[1,5-c]quinazolin-5-yl}amino)azepan-2-one] were 135 nM and 2.24e-08 M.
With `COc1ccc(-c2nc3c4cccc(C5(C)CC5)c4nc(N[C@@H]4CCCCNC4=O)n3n2)cc1` [Example 399, (3R)-3-{[2-(4-methoxyphenyl)-7-(1-methylcyclopropyl)[1,2,4]triazolo[1,5-c]quinazolin-5-yl]amino}azepan-2-one], the figures for the IC50 on AHR [1] and on AHR [2] were 55.7 nM and 1.85e-08 M, respectively.
Taken in the same sequence, the figures for `COc1ccc(-c2nc3c4ccc(C#N)cc4nc(N[C@@H]4CCCCNC4=O)n3n2)cc1` [Example 400, 2-(4-Methoxyphenyl)-5-{[(3R)-2-oxoazepan-3-yl]amino}[1,2,4]triazolo[1,5-c]quinazoline-8-carbonitrile] were 119 nM and 4.16e-08 M.
In the same order, the values of `COc1ccc(-c2nc3c4cc(C#N)ccc4nc(N[C@@H]4CCCCNC4=O)n3n2)cc1` [Example 401, 2-(4-Methoxyphenyl)-5-{[(3R)-2-oxoazepan-3-yl]amino}[1,2,4]triazolo[1,5-c]quinazoline-9-carbonitrile] are 8.7 nM and 4.44e-09 M.
Taken in the same sequence, the figures for `N#Cc1cccc2c1nc(N[C@@H]1CCCCNC1=O)n1nc(-c3ccc(F)cc3)nc21` [Example 402, 2-(4-Fluorophenyl)-5-{[(3R)-2-oxoazepan-3-yl]amino}[1,2,4]triazolo[1,5-c]quinazoline-7-carbonitrile] were 26.1 nM and 8.32e-09 M.
As for `Cn1cc(-c2nc3c4cccc(C#N)c4nc(N[C@@H]4CCCCNC4=O)n3n2)cn1` [Example 403, 2-(1-Methyl-1H-pyrazol-4-yl)-5-{[(3R)-2-oxoazepan-3-yl]amino}[1,2,4]triazolo[1,5-c]quinazoline-7-carbonitrile], the values for the IC50 on AHR [1] and against AHR [2] were 95.1 nM and 3.03e-08 M, respectively.
For the compound `Cc1ccc2nc(N[C@@H]3CCCCNC3=O)n3nc(-c4cnn(C)c4)nc3c2c1C(F)F` [Example 404, (3R)-3-{[10-(difluoromethyl)-9-methyl-2-(1-methyl-1H-pyrazol-4-yl)[1,2,4]triazolo[1,5-c]quinazolin-5-yl]amino}azepan-2-one], the half-inhibitory concentration (IC50) was 2760 nM on AHR [1] and 3.39e-06 M on AHR [2].
In the same order, the values of `Cc1cc2c(cc1C(F)F)nc(N[C@@H]1CCCCNC1=O)n1nc(-c3cnn(C)c3)nc21` [Example 405, (3R)-3-{[8-(difluoromethyl)-9-methyl-2-(1-methyl-1H-pyrazol-4-yl)[1,2,4]triazolo[1,5-c]quinazolin-5-yl]amino}azepan-2-one] are 792 nM and 3.41e-07 M.

Source of the values: US20230113037A1 (Bayer Aktiengesellschaft, priority 2019, published 2023).
